The values that follow come from PubChem BioAssay AID1918957 (Molecular Pharmacology Branch, DTP, NCI, 2023).

Molecules are shown by their SMILES. Where “and” joins values, the source holds several entries; their conditions need not be identical. Equal values may be shown once.

In this test the test system is NCI-H1876 complex spheroid viability. The experiment in a line: Anticancer human tumor NCI-H1876 cell line growth inhibition [LSD1].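 As to all read-outs here: spheroids exposed to compounds for one week before readout.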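 As to viability, T/C: 100% = DMSO vehicle-treated spheroids so lower means fewer viable cells.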 The note with it: for viability, T/C: stronger effect = lower value; for IC50: curve of compound. An excerpt: Multicellular complex tumor spheroid response to LSD1 Inhibitor Iadademstat in combination with a variety of drugs and investigational agents in selected tumor cell lines
The current study was undertaken to assess response to LSD1 inhibitors in combination with standard-of-care drugs and investigational agents in solid tumor complex spheroid models as well as in the K-562 leukemia. Complex spheroids include a stromal component modeled by human endothelial cells (HUVEC) and fibroblasts modeled by human mesenchymal stem cells (MSCs). The concentration ranges selected for each drug and investigational agent were based upon clinically achievable concentrations if the clinical Cmax of the agent was known.
Compounds. The drugs and investigational agents used in this study are listed on Table 1. All of the agents used, including staurosporine (NSC755774) and gemcitabine (NSC613327), were obtained from the Developmental Therapeutics Program, NCI. FDA-approved anticancer drugs are available from the NCI at http://dtp.nci.nih.gov/branches/dscb/oncology_drugset_explanation.html. Drugs and investigational agents were >95% pure by proton nuclear magnetic resonance (NMR) and liquid chromatography/mass spectrometry (LC/MS). Stock solutions were prepared at 400x in DMSO, stored at -70 degrees C, and diluted in fresh medium prior to their use. The final concentration of DMSO in cell culture wells never exceeded 0.25% (v/v). The FDA-approved anticancer drug set is available from the Developmental Therapeutics Program at https://dtp.cancer.gov/organization/dscb/obtaining/available_plates.htm. All drugs and investigational agents were tested over a range starting from a high concentration at or near the clinical Cmax and decreasing in half-log increments. If the clinical Cmax for an agent had not been determined, the highest concentration tested was 10 microM.
Cell Lines. The patient-derived cancer cell (PDC) lines: 292921-168-R-J2-PDC, K24384-001-R-PDC, and 521955-158-R2-J5-PDC pancreatic carcinomas, 556581-035-R-J1 ovarian carcinoma, 324938-238-R-J1-PDC, 855422-203-R-J1-PDC and 883617-216-R-J1-PDC urothelial bladder carcinomas, 743489-274-T-PDC renal cell carcinoma, 138582-R-J1 Merkel cell tumor, K60290-347-R-J1 and K57222-313-R-J1-PDC glioblastomas, 653999-131-R-J2-PDC, LG0703-F948-PDC, and 349418-098-R-PDC non-small cell lung carcinomas, 885512-296-R-J2-PDC, 171881-019-R-J1-PDC breast carcinomas and 186277-243-T-J2-PDC and 233499-124-R-J2-PDC colon carcinomas were obtained from the NCI Patient-Derived Models Repository (PDMR, https://pdmr.cancer.gov). The established cell lines NCI/ADR-RES (RRID:CVCL_14520 and OVCAR-5 (RRID:CVCL_1628) ovarian carcinomas, 786-O (RRID:CVCL_1051) and A498 (RRID:CVCL_A498) renal cell carcinoma, NCI-H211 (ATCC, cat. CRL-5824; RRID:CVCL_1529), NCI-H196 (ATCC, cat. CRL-5823, RRID:CVCL_1509), SW 1271 (ATCC, cat. CRL-2177, RRID:CVCL_1716) and NCI-H1876 (ATCC, cat. CRL-5902, RRID:CVCL_1503) small cell lung carcinomas, MDA-MB-231 (RRID:CVCL_0062) and MDA-MB-468 (RRID:CVCL_0419)breast carcinomas (10-12). Pooled donor human umbilical vein endothelial cells (HUVEC, Lonza, cat. CC-2519) and human mesenchymal stem cells (hMSC, Lonza, cat. PT-2501) were purchased from Lonza (Walkersville, MD).
Cell Culture. All cells were maintained in an incubator at 37 degrees C and 5% CO2 with 95% humidity. The PDC lines were cultured according to standard operating procedures established by the NCI PDMR (https://pdmr.cancer.gov). Briefly all PDCs were thawed and cultured in Matrigel-coated flasks prepared with a working solution of 1X Ham's F-12 nutrient mix, without supplementation (Invitrogen, Waltham, MA, cat. 11765054), 100 U/mL penicillin-streptomycin (Invitrogen, cat. 15140122), and 2.5% Matrigel (Corning Inc., Corning, NY, cat. 354248) for the first three passages. […]

One may read the viability, T/C as the ratio of treated to control. As a reminder, the IC50 is the midpoint of a concentration-inhibition curve. For the compound `CC(C)CC(NC(=O)C(Cc1ccccc1)NC(=O)c1cnccn1)B(O)O` (stereo not drawn), the IC50 was 0.56 nM and 0.462 nM. The viability, T/C (compound 0.000316 µM) was 84% and 74.3%. The viability, T/C (compound 0.001 µM) is 15.6% and 0.43%. The viability, T/C (compound 0.00316 µM) was 8.34% and 0.27%. The viability, T/C (compound 0.01 µM) is 17.3% and 0.26%. In addition, the viability, T/C (compound 0.0316 µM) is 7.7% and 0.24%. Moreover, the viability, T/C (compound 0.1 µM) was 13.9% and 0.31%.

With `CC(C)CC(NC(=O)CNC(=O)c1cc(Cl)ccc1Cl)B1OC(=O)CC(CC(=O)O)(C(=O)O)O1` (stereo not drawn), the IC50 was 10.3 nM and 7.69 nM. In addition, the viability, T/C (compound 0.000316 µM) is 102% and 97.5%. Also, the viability, T/C (compound 0.001 µM) is 98.9% and 91.9%. Further, the viability, T/C (compound 0.00316 µM) was 90.3% and 96%. Also, the viability, T/C (compound 0.01 µM) is 52.4% and 36.7%. In addition, where the note is “compound 0.0316 µM”, the viability, T/C is 7.69% and 2.11%. Where the note is “compound 0.1 µM”, the viability, T/C was 15.7% and 0.34%.

Turning to `CC1(C)CCC(CN2CCN(c3ccc(C(=O)NS(=O)(=O)c4ccc(NCC5CCOCC5)c([N+](=O)[O-])c4)c(Oc4cnc5[nH]ccc5c4)c3)CC2)=C(c2ccc(Cl)cc2)C1`, the IC50 is 2270 nM and 2070 nM. The viability, T/C (compound 0.0316 µM) was 101% and 99.5%. Further, the viability, T/C (compound 0.1 µM) is 101% and 94.4%. For the setting “compound 0.316 µM”, the viability, T/C was 101% and 110%. The viability, T/C (compound 1 µM) was 95.4% and 107%. In addition, for the setting “compound 3.16 µM”, the viability, T/C is 31.8% and 19.4%. In addition, the viability, T/C (compound 10 µM) is 9.13% and 6.87%.

Consider `CC1COCCN1c1cc(-c2ccnn2C)c2ccnc(-c3ccn[nH]3)c2n1` (stereo not drawn), for which the IC50 was 14.6 nM and < 3.16 nM. Further, for the setting “compound 0.00316 µM”, the viability, T/C was 64.3% and 45%. Also, the viability, T/C (compound 0.01 µM) is 59.2% and 33.4%. Further, the viability, T/C (compound 0.0316 µM) is 32.8% and 13.7%. Further, the viability, T/C (compound 0.1 µM) was 19.8% and 4.72%. The viability, T/C (compound 0.316 µM) was 10% and 3.12%. In addition, the viability, T/C (compound 1 µM) was 12.8% and 4.1%.

In the case of `CCN(c1cc(-c2ccc(CN3CCOCC3)cc2)cc(C(=O)NCc2c(C)cc(C)[nH]c2=O)c1C)C1CCOCC1`, the IC50 is above 3000 nM. Moreover, where the note is “compound 0.00949 µM”, the viability, T/C is 104% and 108%. Further, the viability, T/C (compound 0.03 µM) was 97.2% and 107%. Further, the viability, T/C (compound 0.0949 µM) was 104% and 96.1%. Further, the viability, T/C (compound 0.3 µM) is 101% and 96.2%. The viability, T/C (compound 0.949 µM) was 82.7% and 79.5%. Also, the viability, T/C (compound 3 µM) is 55.7% and 54.8%.

For `CC[C@@]1(O)C(=O)OCc2c1cc1n(c2=O)Cc2cc3c(CN(C)C)c(O)ccc3nc2-1`, the IC50 is 2.22 nM and 1.71 nM. The viability, T/C (compound 0.000316 µM) is 94% and 106%. The viability, T/C (compound 0.001 µM) was 86.2% and 81.2%. In addition, the viability, T/C (compound 0.00316 µM) was 33.5% and 14.2%. Moreover, the viability, T/C (compound 0.01 µM) was 27.7% and 10.6%. The viability, T/C (compound 0.0316 µM) was 19.8% and 6.98%. Moreover, the viability, T/C (compound 0.1 µM) is 15.5% and 4.68%.

Regarding `CCc1c2c(nc3ccc(O)cc13)-c1cc3c(c(=O)n1C2)COC(=O)[C@]3(O)CC`, the IC50 is below 0.949 nM. Also, the viability, T/C (compound 0.000949 µM) is 8.16% and 5.21%. Moreover, under “compound 0.003 µM”, the viability, T/C is 6.7% and 3.21%. For the setting “compound 0.00949 µM”, the viability, T/C was 3.77% and 1.73%. Moreover, the viability, T/C (compound 0.03 µM) was 0.82% and 0.45%. In addition, the viability, T/C (compound 0.0949 µM) was 0.56% and 0.42%. For the same compound, where the note is “compound 0.3 µM”, the viability, T/C was 0.51% and 0.41%.

Turning to `COc1cc(C2c3cc4c(cc3C(OC3OC5COC(C)OC5C(O)C3O)C3COC(=O)C23)OCO4)cc(OC)c1O` (stereo not drawn), the 50% inhibitory concentration (IC50) is 54 nM and 37.8 nM. In addition, the viability, T/C (compound 0.00949 µM) is 85.4% and 93.8%. In addition, the viability, T/C (compound 0.03 µM) was 69.1% and 57.3%. In addition, under “compound 0.0949 µM”, the viability, T/C is 30.5% and 20.9%. In addition, the viability, T/C (compound 0.3 µM) was 32.1% and 11.1%. Besides, the viability, T/C (compound 0.949 µM) is 26.4% and 8.9%. The viability, T/C (compound 3 µM) was 11.7% and 9%.

For `COc1cc(Nc2ncc3c(n2)-c2ccc(Cl)cc2C(c2c(F)cccc2OC)=NC3)ccc1C(=O)O`, the IC50 was 22.5 nM and 33.2 nM. For the same compound, where the note is “compound 0.00316 µM”, the viability, T/C was 66.5% and 69.5%. For the same compound, the viability, T/C (compound 0.01 µM) was 54% and 64.2%. In addition, the viability, T/C (compound 0.0316 µM) was 45.4% and 48.2%. Also, the viability, T/C (compound 0.1 µM) is 42.4% and 38.4%. In addition, the viability, T/C (compound 0.316 µM) is 37.3% and 31.5%. The viability, T/C (compound 1 µM) is 28.3% and 19.5%.
